Results from US20220387339A1, “SUPERFINE COMPOUNDS AND PRODUCTION THEREOF” (Esolate Ltd, priority 2019, published 2022).
In brackets after ≈: the same amount, converted by molar mass.

Legend:
[1] = Solubility of cyclodextrins in supercritical CO2 under process conditions (Example 3); settings: for solubility in supercritical CO2: experimental conditions: 40° C., 3,500 psi
[2] = Visual solubility in water before and after processing (FIGS. 3-4); assay type: physicochemical; settings: FIGS. 3 and 4
From the text: The crystals are insoluble in acid and in water.

[3] = Visual solubility in simulated stomach conditions (Example 5); assay type: physicochemical
Protocol: Bioavailability of the cannabinoid ultrafine nanoparticles obtained as described in Example 4 was assessed by visually evaluating the solubility of the fine nanoparticles in simulated stomach conditions. 0.5 g of NaCl was added to a 0.155 M solution of HCl in water to replicate stomach acidic conditions. 10 mg of the fine nanoparticles, 10 mg of the isolates in crystalline form, and 10 mg of the distillates were each placed in vials containing 10 ml of the acidic solution and incubated for 10 hours at 37° C. At the end of the 10-hour period, only minimal solubility of the preparations was observed. Additional 10 ml of the acidic solution were added, and the mixtures were incubated for 10 more hours at 37° C. At the end of the 20-hour period, the cannabinoid nanoparticles dissolved in the acidic solution.

[4] = Relative bioavailability test: CBD concentration in water by HPLC-UV (Example 6); assay type: physicochemical; settings: after 32 hours elapsed time, 0.45 μm filtered
Protocol: Relative bioavailability tests of the cannabinoid ultrafine nanoparticles obtained as described in Example 4 (test samples) as compared to cannabinoid isolates in water (control samples) were performed using a high performance liquid chromatography (HPLC) separator equipped with a UV detector to determine the concentration of CBD in each sample. Control samples were prepared by filtering 1 ml of each sample through a 0.45 μm filter into a 2 ml HPLC vial and 1 ml of methanol (MeOH) was added to each sample vial. HPLC mobile phase was comprised of 65% acetonitrile and 35% water. A flow rate of 1 ml per minute led to the elution of CBD after approximately 4.5 minutes.
A percentage area was measured after 32 hours elapsed time, which represents the amount of CBD in each sample relative to the background signal created by the MeOH in each sample.

[5] = isolates currently available; cited from earlier work

Q: Which “solubility in supercritical CO2” value [1] does the source give for `CC(=O)OC[C@H]1O[C@@H]2O[C@H]3[C@H](OC(C)=O)[C@@H](OC(C)=O)[C@@H](O[C@H]4[C@H](OC(C)=O)[C@@H](OC(C)=O)[C@@H](O[C@H]5[C@H](OC(C)=O)[C@@H](OC(C)=O)[C@@H](O[C@H]6[C@H](OC(C)=O)[C@@H](OC(C)=O)[C@@H](O[C@H]7[C@H](OC(C)=O)[C@@H](OC(C)=O)[C@@H](O[C@H]8[C@H](OC(C)=O)[C@@H](OC(C)=O)[C@@H](O[C@H]1[C@H](OC(C)=O)[C@H]2OC(C)=O)O[C@@H]8COC(C)=O)O[C@@H]7COC(C)=O)O[C@@H]6COC(C)=O)O[C@@H]5COC(C)=O)O[C@@H]4COC(C)=O)O[C@@H]3COC(C)=O` [ABCD, β-cyclodextrin heneicosaacetate] here?
A: 1.3 wt. %

Q: Which “solubility in water (visual)” value [2] does the source give for `C=C(C)[C@@H]1CCC(C)=C[C@H]1c1c(O)cc(CCCCC)cc1O` [CBD isolate, cannabidiol] here?
A: insoluble

Q: And the “solubility in acidic solution after 20 hours (visual)” value ([3]; 10 mg in 20 ml 0.155 M HCl with NaCl, 37° C., 20 hours)?
A: complete insolubility

Q: What about the “solubility in acid (visual)” value ([3]; acidic solvent resembling stomach conditions, FIGS. 3 and 5) of the same compound?
A: insoluble

Q: And the “percentage area (amount of CBD relative to MeOH background signal)” value [4]?
A: 0.7706%

Q: And the solubility in water [5]?
A: 12.6 µg/mL (≈ 40.1 µM)

Q: With Cyclodextrin as the compound, how does the “solubility under the process conditions (supercritical CO2)” value ([1]; 40° C., 3,500 psi) read?
A: insoluble

Q: With α-cyclodextrin exadeacetate [AACD] as the compound, how does the “solubility in supercritical CO2” value [1] read?
A: 1.1 wt. %
